The test deals with DNA-dependent protein kinase catalytic subunit (Homo sapiens, UniProt P78527). The experiment in a line: Inhibition of DNA-PK (unknown origin).

Drawing on BindingDB's records for doi:10.1021/acs.jmedchem.6b00799 (Glaxosmithkline R&D, 2016), this text covers IC50 for 1 compound.

Molecules are shown by their SMILES.

Chain of DNA-dependent protein kinase catalytic subunit (P78527 whole entry): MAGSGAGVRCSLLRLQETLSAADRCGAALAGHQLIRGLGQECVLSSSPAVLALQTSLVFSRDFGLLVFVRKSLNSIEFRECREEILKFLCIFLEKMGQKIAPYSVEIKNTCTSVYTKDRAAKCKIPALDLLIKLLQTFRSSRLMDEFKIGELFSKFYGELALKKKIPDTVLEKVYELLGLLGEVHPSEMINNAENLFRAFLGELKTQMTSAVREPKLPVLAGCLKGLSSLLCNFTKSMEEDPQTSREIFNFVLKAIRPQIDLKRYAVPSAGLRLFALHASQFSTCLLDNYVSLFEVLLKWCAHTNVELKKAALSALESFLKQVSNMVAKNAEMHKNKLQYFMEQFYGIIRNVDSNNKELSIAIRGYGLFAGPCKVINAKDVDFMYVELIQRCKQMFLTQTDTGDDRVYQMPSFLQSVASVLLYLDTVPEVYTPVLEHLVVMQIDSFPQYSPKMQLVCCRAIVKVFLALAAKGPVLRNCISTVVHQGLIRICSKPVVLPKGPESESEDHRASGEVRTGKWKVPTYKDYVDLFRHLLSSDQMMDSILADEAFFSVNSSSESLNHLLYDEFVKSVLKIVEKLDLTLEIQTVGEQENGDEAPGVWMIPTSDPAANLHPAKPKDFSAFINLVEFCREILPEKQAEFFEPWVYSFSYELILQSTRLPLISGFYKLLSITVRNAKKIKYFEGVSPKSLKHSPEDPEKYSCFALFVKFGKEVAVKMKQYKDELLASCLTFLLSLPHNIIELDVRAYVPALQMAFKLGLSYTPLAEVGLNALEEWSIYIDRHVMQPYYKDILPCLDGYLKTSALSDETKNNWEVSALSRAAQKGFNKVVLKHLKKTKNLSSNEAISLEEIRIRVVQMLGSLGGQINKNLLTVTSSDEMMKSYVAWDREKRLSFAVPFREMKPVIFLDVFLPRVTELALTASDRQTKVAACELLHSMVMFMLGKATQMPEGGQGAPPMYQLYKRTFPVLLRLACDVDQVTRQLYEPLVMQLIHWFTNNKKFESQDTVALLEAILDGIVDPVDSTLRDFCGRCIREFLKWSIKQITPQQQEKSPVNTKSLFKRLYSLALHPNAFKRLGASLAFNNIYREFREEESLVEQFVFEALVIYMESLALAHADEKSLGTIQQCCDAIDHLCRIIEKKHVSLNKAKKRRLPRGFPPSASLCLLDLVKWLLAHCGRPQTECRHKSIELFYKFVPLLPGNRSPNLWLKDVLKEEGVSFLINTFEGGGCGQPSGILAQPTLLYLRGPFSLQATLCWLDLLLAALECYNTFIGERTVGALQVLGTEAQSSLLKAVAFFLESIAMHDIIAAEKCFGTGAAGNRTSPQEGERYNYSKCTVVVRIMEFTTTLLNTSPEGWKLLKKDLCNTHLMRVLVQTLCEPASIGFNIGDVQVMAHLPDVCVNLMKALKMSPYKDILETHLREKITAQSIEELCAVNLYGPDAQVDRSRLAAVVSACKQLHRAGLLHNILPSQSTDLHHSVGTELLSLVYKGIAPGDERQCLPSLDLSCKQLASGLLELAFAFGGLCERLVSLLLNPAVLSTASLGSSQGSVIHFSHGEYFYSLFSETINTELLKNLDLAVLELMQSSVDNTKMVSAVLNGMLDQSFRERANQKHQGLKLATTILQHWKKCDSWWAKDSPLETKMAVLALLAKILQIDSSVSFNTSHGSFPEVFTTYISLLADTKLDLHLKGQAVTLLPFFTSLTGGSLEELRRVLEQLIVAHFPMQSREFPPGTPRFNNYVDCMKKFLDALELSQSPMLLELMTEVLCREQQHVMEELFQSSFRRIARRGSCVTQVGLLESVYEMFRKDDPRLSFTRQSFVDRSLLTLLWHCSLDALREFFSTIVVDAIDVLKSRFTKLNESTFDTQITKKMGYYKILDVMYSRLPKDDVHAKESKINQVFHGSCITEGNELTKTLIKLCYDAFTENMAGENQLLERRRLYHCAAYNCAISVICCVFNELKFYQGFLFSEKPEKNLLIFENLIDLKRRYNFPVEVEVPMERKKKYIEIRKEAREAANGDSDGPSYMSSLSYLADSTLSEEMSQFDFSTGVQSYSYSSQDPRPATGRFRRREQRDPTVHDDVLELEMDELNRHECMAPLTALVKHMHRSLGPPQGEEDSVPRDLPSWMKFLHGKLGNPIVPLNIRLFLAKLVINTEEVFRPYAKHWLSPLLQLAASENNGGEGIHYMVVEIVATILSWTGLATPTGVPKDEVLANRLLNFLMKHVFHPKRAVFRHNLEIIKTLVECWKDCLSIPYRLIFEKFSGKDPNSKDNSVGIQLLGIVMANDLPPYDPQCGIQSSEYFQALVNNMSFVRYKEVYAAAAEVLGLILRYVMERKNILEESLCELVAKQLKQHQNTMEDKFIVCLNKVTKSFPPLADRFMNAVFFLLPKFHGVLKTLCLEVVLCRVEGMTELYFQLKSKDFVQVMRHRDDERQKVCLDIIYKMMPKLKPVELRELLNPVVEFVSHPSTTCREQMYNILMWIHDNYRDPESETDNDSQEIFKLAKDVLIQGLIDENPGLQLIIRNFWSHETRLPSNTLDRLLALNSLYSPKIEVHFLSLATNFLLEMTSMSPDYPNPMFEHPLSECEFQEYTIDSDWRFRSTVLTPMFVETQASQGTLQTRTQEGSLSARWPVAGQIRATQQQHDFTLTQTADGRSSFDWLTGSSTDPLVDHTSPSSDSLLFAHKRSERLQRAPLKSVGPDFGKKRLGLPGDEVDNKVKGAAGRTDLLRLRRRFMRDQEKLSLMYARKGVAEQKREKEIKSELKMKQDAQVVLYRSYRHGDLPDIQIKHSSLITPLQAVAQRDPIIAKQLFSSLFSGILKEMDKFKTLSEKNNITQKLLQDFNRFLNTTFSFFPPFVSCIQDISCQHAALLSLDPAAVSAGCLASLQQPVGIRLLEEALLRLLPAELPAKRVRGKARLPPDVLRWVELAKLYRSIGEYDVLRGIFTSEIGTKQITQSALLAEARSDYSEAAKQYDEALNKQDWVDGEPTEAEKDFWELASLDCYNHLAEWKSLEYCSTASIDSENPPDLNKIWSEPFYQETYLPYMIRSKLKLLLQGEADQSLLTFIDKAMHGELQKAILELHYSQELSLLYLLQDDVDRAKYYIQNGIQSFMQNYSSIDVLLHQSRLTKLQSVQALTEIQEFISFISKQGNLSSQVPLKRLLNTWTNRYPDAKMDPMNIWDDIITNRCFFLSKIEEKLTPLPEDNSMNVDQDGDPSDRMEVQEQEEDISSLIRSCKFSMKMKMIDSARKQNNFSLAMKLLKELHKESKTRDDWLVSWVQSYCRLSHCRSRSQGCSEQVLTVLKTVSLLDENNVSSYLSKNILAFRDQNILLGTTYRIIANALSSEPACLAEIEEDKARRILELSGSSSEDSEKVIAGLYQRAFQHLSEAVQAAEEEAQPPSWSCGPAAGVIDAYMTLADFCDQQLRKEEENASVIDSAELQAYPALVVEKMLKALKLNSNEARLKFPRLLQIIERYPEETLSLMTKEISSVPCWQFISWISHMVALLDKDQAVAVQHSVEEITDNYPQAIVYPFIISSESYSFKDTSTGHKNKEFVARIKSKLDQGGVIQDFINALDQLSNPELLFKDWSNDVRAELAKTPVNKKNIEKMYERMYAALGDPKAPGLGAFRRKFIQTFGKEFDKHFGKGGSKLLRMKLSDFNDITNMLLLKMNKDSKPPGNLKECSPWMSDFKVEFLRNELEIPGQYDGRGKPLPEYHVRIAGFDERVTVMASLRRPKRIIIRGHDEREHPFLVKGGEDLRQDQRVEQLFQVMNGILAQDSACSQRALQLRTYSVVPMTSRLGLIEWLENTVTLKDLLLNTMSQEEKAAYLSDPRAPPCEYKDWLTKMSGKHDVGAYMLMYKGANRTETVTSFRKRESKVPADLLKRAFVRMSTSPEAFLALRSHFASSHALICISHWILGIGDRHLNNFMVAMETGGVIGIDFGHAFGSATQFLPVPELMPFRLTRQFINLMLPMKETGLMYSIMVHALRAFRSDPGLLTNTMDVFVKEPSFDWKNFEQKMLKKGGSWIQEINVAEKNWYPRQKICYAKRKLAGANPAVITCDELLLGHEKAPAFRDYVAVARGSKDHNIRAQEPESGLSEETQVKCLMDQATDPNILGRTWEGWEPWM

By IC50 is commonly meant the concentration at which inhibition is half-maximal. A lower IC50 goes with higher potency. Compound `COc1ncc(-c2cc3c(c(NC(=O)CN4CCOCC4)c2)COC3)cc1NS(C)(=O)=O` displayed a 50% inhibitory concentration (IC50) of 2510 nM.
